# Source: patent US20190328687A1, “Antibacterial Compounds” (priority 2014, published 2019)
# Where two headings read alike, the source gives them in different places. Peptide text beside a SMILES is read from it. * marks the point of attachment. βNA = c1ccc2cc(N*)ccc2c1
# Tests used:
# [1] = tested on: efflux pumps over-expressed in P. aeruginosa; conditions: growth inhibition in presence of levofloxacin; cited from earlier work
# AcrAB-TolC = AcrAB-TolC (Escherichia coli, UniProt P02930+P31224); conditions: cited from earlier work
# Sequence of AcrAB-TolC (P31224 whole entry): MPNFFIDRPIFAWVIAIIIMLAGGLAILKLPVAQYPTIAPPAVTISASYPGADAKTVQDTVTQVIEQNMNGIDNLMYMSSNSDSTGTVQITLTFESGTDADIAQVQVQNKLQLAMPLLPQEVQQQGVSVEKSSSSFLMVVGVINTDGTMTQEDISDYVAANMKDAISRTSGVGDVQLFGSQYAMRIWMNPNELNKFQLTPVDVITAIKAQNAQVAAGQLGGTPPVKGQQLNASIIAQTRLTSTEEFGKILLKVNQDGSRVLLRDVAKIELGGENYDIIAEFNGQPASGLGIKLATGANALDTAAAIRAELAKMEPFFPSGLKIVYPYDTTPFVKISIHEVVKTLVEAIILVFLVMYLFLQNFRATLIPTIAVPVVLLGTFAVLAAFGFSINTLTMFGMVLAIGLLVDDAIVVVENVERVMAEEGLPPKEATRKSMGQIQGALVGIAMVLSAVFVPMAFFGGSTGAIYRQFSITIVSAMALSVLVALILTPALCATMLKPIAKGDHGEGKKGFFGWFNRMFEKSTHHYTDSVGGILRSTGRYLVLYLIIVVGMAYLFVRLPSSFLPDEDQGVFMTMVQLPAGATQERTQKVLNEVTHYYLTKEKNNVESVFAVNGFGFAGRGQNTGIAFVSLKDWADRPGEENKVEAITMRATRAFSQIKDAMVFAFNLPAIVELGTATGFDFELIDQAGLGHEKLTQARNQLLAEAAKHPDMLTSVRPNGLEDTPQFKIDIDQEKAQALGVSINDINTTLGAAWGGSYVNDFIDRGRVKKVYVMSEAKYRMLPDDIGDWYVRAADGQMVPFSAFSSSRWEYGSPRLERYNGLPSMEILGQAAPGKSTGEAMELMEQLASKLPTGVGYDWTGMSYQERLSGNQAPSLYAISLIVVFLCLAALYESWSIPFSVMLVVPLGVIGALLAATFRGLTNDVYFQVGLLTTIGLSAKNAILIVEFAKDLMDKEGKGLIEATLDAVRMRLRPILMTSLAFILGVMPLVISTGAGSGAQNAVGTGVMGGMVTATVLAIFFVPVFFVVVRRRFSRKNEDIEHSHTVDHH
# Sequence of AcrAB-TolC (P02930 23-493): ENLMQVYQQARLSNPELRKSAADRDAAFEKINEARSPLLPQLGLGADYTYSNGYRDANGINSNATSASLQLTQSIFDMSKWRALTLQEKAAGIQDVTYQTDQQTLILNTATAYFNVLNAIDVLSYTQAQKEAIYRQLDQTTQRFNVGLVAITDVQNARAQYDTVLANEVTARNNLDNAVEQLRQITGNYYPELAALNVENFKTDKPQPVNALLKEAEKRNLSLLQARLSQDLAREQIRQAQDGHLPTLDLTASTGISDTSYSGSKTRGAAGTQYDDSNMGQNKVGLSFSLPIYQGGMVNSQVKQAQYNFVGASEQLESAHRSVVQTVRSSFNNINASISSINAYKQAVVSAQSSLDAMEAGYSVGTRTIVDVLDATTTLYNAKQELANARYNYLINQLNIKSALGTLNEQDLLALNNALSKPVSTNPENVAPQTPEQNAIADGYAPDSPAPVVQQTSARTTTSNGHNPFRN
# Sequence of AcrAB-TolC (P0AE06 25-397, further chain): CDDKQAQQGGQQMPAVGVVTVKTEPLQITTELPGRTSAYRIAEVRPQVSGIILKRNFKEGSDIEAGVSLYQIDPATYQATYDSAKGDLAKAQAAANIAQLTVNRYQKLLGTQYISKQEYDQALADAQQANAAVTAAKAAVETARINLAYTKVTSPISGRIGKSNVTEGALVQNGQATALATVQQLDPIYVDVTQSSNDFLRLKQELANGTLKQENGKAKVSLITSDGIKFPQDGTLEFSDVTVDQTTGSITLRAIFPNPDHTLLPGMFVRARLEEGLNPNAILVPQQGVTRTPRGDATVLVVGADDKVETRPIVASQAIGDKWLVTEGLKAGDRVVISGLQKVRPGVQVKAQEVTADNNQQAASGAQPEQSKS
# [2] = tested on: methicillin resistant Staphylococcus aureus (MRSA; ATCC43300); experiment: Heatmap growth inhibition assay, MRSA; conditions: single agent
# E. coli 7KO = experiment: Cell sensitivity assay (growth, OD600)
# Method: (§1) Overnight cultures of E. coli 7KO or 7KOΔtolC strains are used to inoculate fresh aliquots of LB media which are then incubated at 30° C., 200 rpm for 2.5 h. 40 μL aliquots of each culture are subsequently added to 40 μL of LB media containing 2× the desired final niclosamide concentration (i.e., resulting in a final 2-fold dilution series from 5 μM down to 20 nM) or a 0 μM control in a 384-well microplate. The plate is incubated at 30° C., 200 rpm for 4 h. Culture turbidity is monitored by optical density at 600 nm in order to calculate percentage growth relative to the 0 μM control for each strain. Data are the mean of at least two independent experiments±SEM.
# Overnight cultures of E. coli 7KO are used to inoculate fresh aliquots of LB media which are then incubated at 30° C., 200 rpm for 2.5 h. 40 μL aliquots of each culture are subsequently added to 40 μL of LB media containing 2× the desired final niclosamide concentration (i.e., resulting in a final 2-fold dilution series from 10 μM down to 160 nM) or a 0 μM control, as well as either 0 μM, 25 μM or 50 μM PaβN in a 384-well microplate. An overnight culture of 7KOΔtolC is treated in the same manner, but without addition of PaβN. […] Culture turbidity is monitored by optical density at 600 nm in order to calculate percentage growth relative to the 0 μM niclosamide control for each series. […]
# [3] = tested on: E. coli 7KOΔtolC strains over-expressing nitroreductase candidates from plasmid pUCX; experiment: Cell sensitivity assay, nitroreductase over-expressing strains; format: cell-based; conditions: for IC50: Escherichia coli
# E. coli 6KO = experiment: Toxicity to E. coli host strain; format: cell-based; conditions: even if not over-expressing an active nitroreductase
# Text: Without wishing to be bound by theory, the applicants hypothesise that a key difference between the niclosamide-sensitive SOS-R2 and niclosamide-resistant 6KO strains is that the former carry a deletion of the tolC gene, which encodes an efflux pump capable of exporting numerous xenobiotic and other compounds directly across both cell membranes of Gram negative bacterial cells.
# [4] = tested on: Mycobacterium tuberculosis; conditions: cited from earlier work
# M. tuberculosis = conditions: cited from earlier work
# [5] = tested on: quorum sensing system in Pseudomonas aeruginosa; conditions: among FDA-approved drugs tested; cited from earlier work
# E. coli 7KOΔtolC = experiment: Cell sensitivity assay (growth, OD600)
# Method: as §1
# Overnight cultures of E. coli 7KOΔtolC are used to inoculate fresh aliquots of LB media which are incubated at 30° C., 200 rpm for 2.5 h. […] Culture turbidity is monitored by optical density at 600 nm in order to calculate percentage growth relative to the 0 μM control for each strain. […]
# This procedure applies to all experiments yielding growth curves for Gram negative bacterial strains generated in the presence of niclosamide or 2-chloro-4-nitroaniline, unless noted otherwise below or in the individual Figure Descriptions. […] Culture turbidity is monitored by optical density at 600 nm (OD600) 4 h post-challenge. […]
# [6] = tested on: Staphylococcus aureus ATCC 43300 (MRSA); experiment: Growth inhibition of Gram positive bacteria: IC50 measurements; conditions: ATCC43300|MRSA, 4 h, read-out: IC50 against Staphylococcus aureus ATCC 43300 (MRSA)
# Method: (§2) Data are the mean of two independent replicates (using duplicate technical replicates for each independent experiment) and error bars indicate standard error of the mean.
# (§3) Data are the mean of two technical replicates.
# (§4) 15 mL tubes containing 2 mL tryptic soy broth (TSB) were inoculated with the Gram positive bacterial strains Staphylococcus aureus ATCC 43300 (MRSA), Bacillus thuringiensis P.1.IPS-80 serovar israelensis, or Listeria welshimeri ATCC 35897. Strains were incubated overnight at 37° C. with shaking at 200 rpm. The following day, the overnight cultures were diluted in fresh TSB to give an OD600 of approximately 0.3. Duplicate 40 μL aliquots of this were then added to individual wells of a sterile 384 well plate, containing 40 μL TSB medium supplemented with serial dilutions of 2× niclosamide or nitazoxanide, including 0 μM controls. Culture turbidity was monitored by optical density at 600 nm at 4 h post-challenge. Percentage growth inhibition values were calculated by comparison of the niclosamide- or nitazoxanide-challenged cells with the unchallenged control for each strain, after subtracting the initial absorbance values (t=0 h). […]
# [7] = tested on: Listeria welshimeri ATCC 35897; experiment: as above; conditions: ATCC35897, 4 h, read-out: IC50 against Listeria welshimeri ATCC 35897
# Method: as §2, §3, §4
# [8] = Heatmap growth inhibition assay, drug-resistant clinical isolates; conditions: read-out: IC50 against clinical isolates
# Salmonella typhimurium = conditions: cited from earlier work
# pyruvate oxidoreductases = conditions: cited from earlier work
# E. coli 7KOΔtolC (DE3) = experiment: 7KOΔtolC(DE3) cell sensitivity assay
# Method: Overnight cultures of E. coli 7KOΔtolC (DE3) strains overexpressing either E. coli NfsA (NfsA_Ec), E. coli NfsB (NfsB_Ec) or containing a plasmid only (pET28) control are used to inoculate fresh aliquots of assay media (LB media supplemented with 50 μg·mL^−1 kanamycin and 50 μM IPTG) which are incubated at 30° C., 200 rpm for 2.5 h. 40 μL aliquots of each culture are then added to 40 μL aliquots of assay media containing 2× the desired final concentration of nitazoxanide (i.e., resulting in a final 2-fold dilution series from 20 down to 2.5 μM) or a 0 μM media only control. The plate is then incubated at 30° C., 200 rpm for 4 h. Culture turbidity is monitored by optical density at 600 nm in order to calculate percentage growth relative to the 0 μM control for each strain. Data are the mean of at least two independent experiments±SEM.
# Individual wells of a 96-well microtitre plate containing 100 μL LB supplemented with 50 μg mL^−1 are inoculated in duplicate with 7KOΔtolC(DE3) strains overexpressing E. coli nfsA, E. coli nfsB or a pET28 empty plasmid control. Strains are incubated overnight at 30° C. in a Heidolph titramax platform shaker at 900 rpm. 30 μL of each overnight culture is used to inoculate duplicate cultures of 600 μL LB supplemented with 50 μg mL^−1 kanamycin and 50 μM IPTG in a 96 well deep culture plate (Axygen). Cultures are incubated at 30° C., 1200 rpm for 2.5 h. 40 μL aliquots from each culture are then added to individual wells of a sterile 384 well plate, containing 40 μL LB medium supplemented with 100 μg mL^−1 kanamycin, 50 μM IPTG and serial dilutions of nitazoxanide, including 0 μM controls. Each nitroreductase over-expression strain is tested in duplicate (independent replicates). Culture turbidity is monitored by optical density at 600 nm 4 h post-challenge. Percentage growth values are calculated by comparison of the nitazoxanide-challenged cells with the unchallenged control, after subtracting the initial absorbance values (t=0 h). Microtitre plate absorbance readings are measured using an Eon Biotek Reader (BioTek Instruments Inc.).
structure (smiles),measurement,setting,value
"N=C(N)NCCC[C@H](NC(=O)[C@@H](N)Cc1ccccc1)C(=O)Nc1ccc2ccccc2c1 [PAβN, phenylalanine-arginine β-napthylamide] (H-Phe-Arg-βNA)",Activity against P. aeruginosa efflux pumps,[1],active against each of the efflux pumps
same,Activity against AcrAB-TolC,AcrAB-TolC,active against AcrAB-TolC
same,Sensitivity of MRSA (concentration level),[2],micromolar levels
same,Effect of PAβN on niclosamide sensitivity,"E. coli 7KO; 25 μM or 50 μM PAβN, niclosamide 10 μM down to 156 nM",promote niclosamide sensitivity in the 7KO strain in a dose-dependent manner
"O=C(Nc1ccc([N+](=O)[O-])cc1Cl)c1cc(Cl)ccc1O [Niclosamide, N-(2′-chloro-4′-nitrophenyl)-5-chlorosalicylamide]","IC50, strains over-expressing NfsA, NfsB and AzoR","[3]; 7KOΔtolC, pUCX NfsA, NfsB or AzoR",low micromolar
same,IC50,"[3]; read-out: IC50, MdaB over-expressing strain",83 nM
same,IC50,"[3]; read-out: IC50, NemA over-expressing strain",300 nM
same,IC50,"[3]; read-out: IC50, empty plasmid control strain",47 nM
same,Toxicity to 6KO strain,E. coli 6KO,no longer found to be toxic
same,MIC,[4],0.5 to 1 µg/mL
same,Activity against non-replicating M. tuberculosis,[4]; grown in low oxygen conditions,active
same,Effect on membrane potential,M. tuberculosis,uncoupled the membrane potential
same,Anti-quorum sensing activity,[5],highest anti-quorum sensing activity
same,Sensitivity of MRSA (concentration level),[2],nanomolar concentrations
same,IC50,"E. coli 7KOΔtolC; Escherichia coli, 4 h, read-out: IC50 for 7KOΔtolC",120 nM
same,IC50,"E. coli 7KO; Escherichia coli, 7KO, 4 h, read-out: IC50 for 7KO",> 5000 nM
same,IC50,[6],132 nM
same,IC50,[7],284 nM
same,IC50,[8],> 20000 nM
O=C(O)c1cc(Cl)ccc1O [5-chlorosalicyclic acid],Mutagenicity,Salmonella typhimurium,non-mutagenic
"CC(=O)Oc1ccccc1C(=O)Nc1ncc([N+](=O)[O-])s1 [Nitazoxanide, 2-acetyloxy-N-(5-nitro 2-thiazolyl)benzamide]",Effect on membrane potential,M. tuberculosis,disrupts membrane potential and pH homeostasis
same,Effect on membrane potential,M. tuberculosis; listed as nitazoxanide,uncoupled the membrane potential
same,Inhibition of pyruvate oxidoreductases,pyruvate oxidoreductases,inhibits pyruvate oxidoreductases
same,Toxicity relative to niclosamide (less toxic),E. coli 7KOΔtolC (DE3); 7KOΔtolC (DE3) cells,approximately 2 orders of magnitude
same,Effect of NfsA and NfsB over-expression on toxicity,"E. coli 7KOΔtolC (DE3); 7KOΔtolC (DE3), pET28 NfsA or NfsB",able to defend against nitazoxanide toxicity
same,IC50,"E. coli 7KOΔtolC (DE3); Escherichia coli, 4 h, read-out: IC50 in 7KOΔtolC (DE3) cells",5200 nM
same,IC50,[6],2900 nM
same,IC50,[7],8780 nM
Nc1ccc([N+](=O)[O-])cc1Cl [2-chloro-4-nitroaniline],Mutagenicity,Salmonella typhimurium,mutagenic product
same,Toxicity relative to niclosamide,"E. coli 7KOΔtolC; growth inhibition of 7KOΔtolC, FIG. 15",at least three orders of magnitude less toxic than niclosamide
